B1: 8762NT: DNA oligonucleotide from human rDNA non-template strand, CGGAGGGCGCGCGGGTCGGGGCGGCGGCGGCGGCGGCGGTGGCGGCGGCGGCGGGGGCGGCGGG (nucleic acid)
DNA: CGGAGGGCGCGCGGGTCGGGGCGGCGGCGGCGGCGGCGGTGGCGGCGGCGGCGGGGGCGGCGGG
modifications: chemistry not given here

These molecules were tested against T1, nucleolin (Homo sapiens, UniProt P19338) (assay: Nucleolin/nucleic acid ligand interaction assay (gel retardation)). Details: relative affinity of each nucleic acid ligand for recombinant nucleolin (MBP fusion, ~250 nM); 32P-labeled ligand; 6% DNA retardation gel.
T1 construct: without the N-terminal acidic stretches domain
T1 sequence (P19338 284-710 limits assumed): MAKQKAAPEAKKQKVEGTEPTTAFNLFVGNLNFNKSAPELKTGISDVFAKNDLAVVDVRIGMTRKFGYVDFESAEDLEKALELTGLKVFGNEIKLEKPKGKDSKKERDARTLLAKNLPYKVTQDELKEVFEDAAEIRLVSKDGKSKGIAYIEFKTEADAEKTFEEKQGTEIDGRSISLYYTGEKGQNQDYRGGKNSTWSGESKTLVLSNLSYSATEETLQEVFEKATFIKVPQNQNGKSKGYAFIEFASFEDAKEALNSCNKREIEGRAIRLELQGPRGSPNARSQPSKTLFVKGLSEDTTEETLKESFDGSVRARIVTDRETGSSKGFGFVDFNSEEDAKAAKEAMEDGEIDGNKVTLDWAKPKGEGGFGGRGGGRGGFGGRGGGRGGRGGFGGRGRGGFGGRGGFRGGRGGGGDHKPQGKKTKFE
Format: binding
Design: key: A “+” represents the weakest nucleolin affinity; a “++++” represents the strongest nucleolin affinity
Description: The following assays can be used to assess the effects of compounds on interactions between nucleolin and nucleic acid ligands capable of forming quadruplex (QP) and hairpin (HP) secondary structures. Nucleic acid ligands tested were a cMyc QP DNA having nucleotide sequence 5′-[…]-3′ and a HP pre-rRNA region to which nucleolin binds, having the sequence 5′-[…]-3′. In the assays, recombinant nucleolin (˜250 nM), which has been fused to maltose binding protein, and has the sequence under accession number NM_005381 without the N-terminal acidic stretches domain, is incubated with each of the two ^32P-labeled nucleic acid ligands (10 or 250 nM). Nucleolin and the nucleic acid ligand are incubated in the presence or absence of a test compound 7 in an incubation buffer (12.5 mM Tris, pH 7.6, 60 mM KCl, 1 mM MgCl2, 0.1 mM EDTA, 1 mM DTT, 5% glycerol, 0.1 mg/ml BSA) for 30 minutes at room temperature.
The resulting complexes are separated on a 6% DNA retardation gel using 0.5×TBE with 20 mM KCl as a running buffer. The assay also can be conducted using nucleic acid ligands derived from human ribosomal DNA, whereby one can identify a compound that selectively modulates formation of a nucleolin/nucleic acid complex that depends on the conformation of the nucleic acid. Sequences of suitable nucleic acids are shown in the preceding example. […] A “+” represents the weakest nucleolin affinity and a “++++” represents the strongest nucleolin affinity. […] Using nucleic acids such as these having known conformational properties, one can identify a compound such as the compounds described herein that selectively interferes with binding of nucleolin to a particular quadruplex structure.
“6183NT: DNA oligonucleotide from human rDNA non-template strand, GGGTCGGGGGCGGTGGTGGGCCCGCGGGGG (DNA, backbone and methylation of C not given here) [Example 6183NT]” was tested, and the “Affinity for Nucleolin” value was “+”. “7733T: DNA oligonucleotide from human rDNA template strand, GGGAGGGGCACGGGCCGGGGGCGGGACGGG (DNA, backbone and methylation of C not given here) [Example 7733T]” was tested, and the “Affinity for Nucleolin” value was “+”. With “8511NT: DNA oligonucleotide from human rDNA non-template strand, GGGGGTGGGCGGGCGGGGCCGGGGGTGGG (DNA, backbone and methylation of C not given here) [Example 8511NT]” the “Affinity for Nucleolin” value was “++++”. For “8749NT: DNA oligonucleotide from human rDNA non-template strand, GGGAGGGCGCGCGGGTCGGGG (chemistry not given here) [Example 8749NT]”, the “Affinity for Nucleolin” value was “+”. With “11028NT: DNA oligonucleotide from human rDNA non-template strand, GGGGCGCGGCGGGGGGAGAAGGGTCGGGGCGGCAGGGG (DNA, backbone and methylation of C not given here) [Example 11028NT]” the “Affinity for Nucleolin” value was “+”. With B1 the “Affinity for Nucleolin” value was “++++”.

Reference: patent US20100063046A1, “TETRACYCLIC IMIDAZOLE ANALOGS” (priority 2006, published 2010)
